The test deals with bovine carbonic anhydrase II (Bos taurus, UniProt P00921). Briefly: fluorescent thermal shift assay (ANS probe). The test is classed as binding. The conditions noted are these: upon increasing concentration of the inhibitor; Figure 3. As to the method:
Example 19. Determination of the observed binding constants by the fluorescent thermal shift assay.
Inhibitor binding to carbonic anhytdrases was also measured by the fluorescent thermal shift assay, which employs 1-anilino-8-naphthalene sulfonate (ANS) probe that visualizes enzyme thermal stabilization by the inhibitor thus determining the binding constant.
Resultant data is consistent with the isothermal titration calorimetry data in determining the observed binding constants of the inhibitors.

Sequence of bovine carbonic anhydrase II (P00921 whole entry): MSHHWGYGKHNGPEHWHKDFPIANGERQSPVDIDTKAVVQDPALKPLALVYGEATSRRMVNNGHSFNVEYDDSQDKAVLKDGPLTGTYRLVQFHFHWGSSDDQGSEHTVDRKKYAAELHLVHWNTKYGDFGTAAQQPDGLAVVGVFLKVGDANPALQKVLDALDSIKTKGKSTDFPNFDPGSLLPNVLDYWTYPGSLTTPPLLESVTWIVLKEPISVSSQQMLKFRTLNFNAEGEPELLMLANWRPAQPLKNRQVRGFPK

`NS(=O)(=O)c1ccc2nc3n(c2c1)N=S=C3N1CCOCC1` [compound 4, 3-morpholinbenzimidazo[1,2-c][1,2,3]thiadiazol-7-sulfonamide]: the “melting temperature (Tm)” value was “Tm increase”.

Values taken from patent publication EP2054420B1, “BENZIMIDAZO[1,2-C][1,2,3]THIADIAZOL-7-SULFONAMIDES AS INHIBITORS OF CARBONIC ANHYDRASE AND THE INTERMEDIATES FOR PRODUCTION THEREOF” (Biotechnologijos Institutas, priority 2006, dated 2008).
